Laboratory results as given in patent US9586951B2 (FUJIFILM Corporation, priority 2013, dated 2017).

Target: T1, ATM (Homo sapiens, UniProt Q13315)
T1 construct: detecting phosphorylation of Chk2 in a human non-small cell lung cancer cell line NCI-H460 (ATCC company); host or cells: NCI-H460 human non-small cell lung cancer cells
Assay: ATM inhibition test (phosphorylation of Chk2 generated by ionizing radiation, AlphaScreen SureFire)
Assay type: cell-based
Details: phosphorylated Chk2 in NCI-H460 cells, ionizing radiation 8Gy, 1 hour after test compound treatment; read-out: ATM inhibitory activity
Outline: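 In NCI-H460 cells, radiation-triggered Chk2 phosphorylation (8Gy, 1 h) is detected by AlphaScreen SureFire following 1 h compound exposure.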

T1 sequence (Q13315 whole entry): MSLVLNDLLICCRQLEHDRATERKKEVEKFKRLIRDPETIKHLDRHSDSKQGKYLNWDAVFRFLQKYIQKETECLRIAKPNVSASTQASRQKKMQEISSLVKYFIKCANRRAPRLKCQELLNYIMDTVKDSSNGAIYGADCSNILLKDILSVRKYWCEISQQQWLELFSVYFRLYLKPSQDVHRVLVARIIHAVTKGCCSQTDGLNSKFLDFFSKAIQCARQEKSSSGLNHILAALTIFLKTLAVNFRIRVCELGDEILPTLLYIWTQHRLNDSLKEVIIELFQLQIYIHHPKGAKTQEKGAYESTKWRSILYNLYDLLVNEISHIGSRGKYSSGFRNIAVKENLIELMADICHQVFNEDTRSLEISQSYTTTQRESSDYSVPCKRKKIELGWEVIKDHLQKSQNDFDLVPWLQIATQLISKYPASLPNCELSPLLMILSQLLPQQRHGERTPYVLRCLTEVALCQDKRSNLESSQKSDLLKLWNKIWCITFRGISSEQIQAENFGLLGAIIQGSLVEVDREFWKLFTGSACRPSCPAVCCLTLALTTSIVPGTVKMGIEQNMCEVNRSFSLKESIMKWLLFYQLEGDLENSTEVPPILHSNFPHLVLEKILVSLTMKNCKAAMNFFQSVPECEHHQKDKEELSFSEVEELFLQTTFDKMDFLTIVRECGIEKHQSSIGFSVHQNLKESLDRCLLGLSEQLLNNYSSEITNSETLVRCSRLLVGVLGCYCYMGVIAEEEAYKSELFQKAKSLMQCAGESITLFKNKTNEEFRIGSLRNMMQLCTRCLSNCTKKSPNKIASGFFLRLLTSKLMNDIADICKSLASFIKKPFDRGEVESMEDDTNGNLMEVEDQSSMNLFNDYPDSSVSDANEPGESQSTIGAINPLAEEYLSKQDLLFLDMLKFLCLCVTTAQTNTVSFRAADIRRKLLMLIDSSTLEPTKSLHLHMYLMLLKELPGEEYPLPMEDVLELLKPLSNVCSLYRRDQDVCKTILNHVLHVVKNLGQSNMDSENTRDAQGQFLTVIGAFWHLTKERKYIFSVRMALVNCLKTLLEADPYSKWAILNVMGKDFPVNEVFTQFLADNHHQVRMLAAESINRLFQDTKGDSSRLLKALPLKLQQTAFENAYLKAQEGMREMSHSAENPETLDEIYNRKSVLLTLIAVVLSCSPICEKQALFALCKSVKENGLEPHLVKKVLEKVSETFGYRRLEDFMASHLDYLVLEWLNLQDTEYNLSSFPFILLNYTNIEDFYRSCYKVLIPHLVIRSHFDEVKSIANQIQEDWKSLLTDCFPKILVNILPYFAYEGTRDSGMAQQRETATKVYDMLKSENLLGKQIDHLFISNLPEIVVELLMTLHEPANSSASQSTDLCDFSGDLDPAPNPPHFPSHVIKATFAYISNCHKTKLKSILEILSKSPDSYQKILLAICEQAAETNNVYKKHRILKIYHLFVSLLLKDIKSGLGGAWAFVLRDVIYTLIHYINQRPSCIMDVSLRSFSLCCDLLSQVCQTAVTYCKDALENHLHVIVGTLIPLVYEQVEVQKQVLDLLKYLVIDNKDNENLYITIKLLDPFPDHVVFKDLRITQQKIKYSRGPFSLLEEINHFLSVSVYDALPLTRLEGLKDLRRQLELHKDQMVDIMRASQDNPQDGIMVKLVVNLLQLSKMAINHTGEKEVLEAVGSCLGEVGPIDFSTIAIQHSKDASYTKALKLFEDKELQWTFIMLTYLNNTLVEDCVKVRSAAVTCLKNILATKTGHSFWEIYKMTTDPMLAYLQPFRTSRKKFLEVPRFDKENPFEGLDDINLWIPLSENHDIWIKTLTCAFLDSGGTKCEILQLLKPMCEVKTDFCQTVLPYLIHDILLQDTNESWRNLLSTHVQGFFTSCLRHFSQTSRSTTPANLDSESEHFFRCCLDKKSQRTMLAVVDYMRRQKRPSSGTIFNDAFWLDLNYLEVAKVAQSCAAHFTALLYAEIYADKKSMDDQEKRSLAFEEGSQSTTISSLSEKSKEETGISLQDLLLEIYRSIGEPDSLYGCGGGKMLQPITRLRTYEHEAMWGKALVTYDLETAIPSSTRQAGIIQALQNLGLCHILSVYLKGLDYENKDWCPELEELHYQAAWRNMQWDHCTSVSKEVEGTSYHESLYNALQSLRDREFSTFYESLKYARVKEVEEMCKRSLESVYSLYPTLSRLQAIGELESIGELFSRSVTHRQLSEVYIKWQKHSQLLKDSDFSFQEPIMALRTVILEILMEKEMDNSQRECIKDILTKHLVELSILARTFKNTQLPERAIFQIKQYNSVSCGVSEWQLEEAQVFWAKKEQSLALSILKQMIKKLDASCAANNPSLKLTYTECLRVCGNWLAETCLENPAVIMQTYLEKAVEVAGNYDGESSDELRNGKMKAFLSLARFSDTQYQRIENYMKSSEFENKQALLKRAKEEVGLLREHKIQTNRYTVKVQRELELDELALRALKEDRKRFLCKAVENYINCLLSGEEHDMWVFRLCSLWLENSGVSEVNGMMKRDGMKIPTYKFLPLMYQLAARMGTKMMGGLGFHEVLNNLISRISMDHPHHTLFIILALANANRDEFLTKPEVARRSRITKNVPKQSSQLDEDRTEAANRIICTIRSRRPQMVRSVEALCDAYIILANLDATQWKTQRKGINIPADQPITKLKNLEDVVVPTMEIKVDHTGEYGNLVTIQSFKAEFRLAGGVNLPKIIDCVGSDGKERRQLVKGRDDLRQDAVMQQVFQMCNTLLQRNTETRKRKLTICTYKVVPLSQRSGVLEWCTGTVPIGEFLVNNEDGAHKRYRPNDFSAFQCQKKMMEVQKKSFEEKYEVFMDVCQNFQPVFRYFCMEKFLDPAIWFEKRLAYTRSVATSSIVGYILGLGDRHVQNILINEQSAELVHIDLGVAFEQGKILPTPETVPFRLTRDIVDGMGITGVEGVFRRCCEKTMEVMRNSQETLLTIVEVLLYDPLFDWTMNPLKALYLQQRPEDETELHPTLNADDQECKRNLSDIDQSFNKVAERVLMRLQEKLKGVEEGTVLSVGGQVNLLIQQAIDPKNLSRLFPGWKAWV

Compound: CC(Nc1ccc2c(c1)Sc1cccc(-c3cc(N4CCOCC4)cc(=O)[nH]3)c1S2)c1cccc(CN2CCCCC2)n1 (stereo not drawn) [Example 1-12-109, 4-Morpholino-6-(7-((1-(6-(piperidin-1-ylmethyl)pyridin-2-yl)ethyl)amino)thianthren-1-yl)pyridin-2 (1H)-one]
- IC50: 100 to 500 nM

Compound: O=c1cc(N2CCOCC2)cc(-c2cccc3c2Sc2ccc(N[C@H](CCN4CCOCC4)CN4CCOCC4)cc2S3)[nH]1 [Example 8-1, (R)-6-(7-((1,4-dimorpholinobutan-2-yl)amino)thianthren-1-yl)-4-morpholinopyridin-2(1H)-one]
- IC50: 100 to 500 nM

Compound: CNc1ccc(CNc2ccc3c(c2)Sc2cccc(-c4cc(N5CCOCC5)cc(=O)[nH]4)c2S3)cn1 [Example 1-12-8, 6-(7-(((6-(Methylamino)pyridin-3-yl)methyl)amino)thianthren-1-yl)-4-morpholino pyridin-2(1H)-one]
- IC50: 100 to 500 nM

Compound: CC(Nc1ccc2c(c1)Cc1cccc(-c3cc(N4CCOCC4)cc(=O)[nH]3)c1O2)c1ncc(CO)cn1 (stereo not drawn) [Example 2-14-66, 6-(7-((1-(5-(Hydroxymethyl)pyrimidin-2-yl)ethyl)amino)-9H-xanthen-4-yl)-4-morpholino pyridin-2(1H)-one]
- IC50: 500 to 2000 nM

Compound: Cc1nccc(C(C)Nc2ccc3c(c2)Sc2cccc(-c4cc(N5CCOCC5)cc(=O)[nH]4)c2S3)n1 (single isomer, unassigned) [Example 1-12-141-2, 6-(7-((1-(2-methylpyrimidin-4-yl)ethyl)amino)thianthren-1-yl)-4-morpholinopyridin-2(1H)-one]
- IC50: 100 to 500 nM

Compound: CN(C)CC(=O)Nc1ccc2c(c1)Sc1cccc(-c3cc(N4CCOCC4)cc(=O)[nH]3)c1S2 [Example 1-7-1, 2-(dimethylamino)-N-(6-(4-morpholino-6-oxo-1,6-dihydropyridin-2-yl)thianthren-2-yl)acetamide]
- IC50: 500 to 2000 nM

Compound: Cc1csc(CNc2ccc3c(c2)Sc2cccc(-c4cc(N5CCOCC5)cc(=O)[nH]4)c2S3)c1 [Example 1-12-58, 6-(7-(((4-Methylthiophen-2-yl)methyl)amino)thianthren-1-yl)-4-morpholino pyridin-2 (1H)-one]
- IC50: 100 to 500 nM

Compound: O=c1cc(N2CCOCC2)cc(-c2cccc3c2Sc2ccc(NCc4cscn4)cc2S3)[nH]1 [Example 1-12-53, 4-Morpholino-6-(7-((thiazol-4-ylmethyl)amino)thianthren-1-yl)pyridin-2 (1H)-one]
- IC50: 100 to 500 nM

Compound: O=c1cc(N2CCOCC2)cc(-c2cccc3c2Sc2ccc(NC4CCN(C5CCOCC5)C4)cc2S3)[nH]1 (stereo not drawn) [Example 1-24-13, 4-Morpholino-6-(7-((1-(tetrahydro-2H-pyran-4-yl)pyrrolidin-3-yl)amino)thianthren-1-yl)pyridin-2 (1H)-one]
- IC50: 100 to 500 nM

Compound: CN1CCN(c2cc(CNc3ccc4c(c3)Cc3cccc(-c5cc(N6CCOCC6)cc(=O)[nH]5)c3O4)ccn2)CC1 [Example 2-22-2, 6-(7-(((2-(4-methylpiperazin-1-yl)pyridin-4-yl)methyl)amino)-9H-xanthen-4-yl)-4-morpholinopyridin-2(1H)-one]
- IC50: 100 to 500 nM

Compound: CCC(C)C(Nc1ccc2c(c1)Sc1cccc(-c3cc(N4CCOCC4)cc(=O)[nH]3)c1S2)c1ccc(C)cn1 (stereo not drawn) [Example 1-12-122, 6-(7-((2-Methyl-1-(5-methylpyridin-2-yl)butyl)amino)thianthren-1-yl)-4-morpholino pyridin-2(1H)-one]
- IC50: 100 to 500 nM

Compound: O=c1cc(N2CCOCC2)cc(-c2cccc3c2Oc2ccc(NCc4nccs4)cc2C3)[nH]1 [Example 2-14-31, 4-Morpholino-6-(7-((thiazol-2-ylmethyl)amino)-9H-xanthen-4-yl) pyridin-2(1H)-one]
- IC50: 100 to 500 nM

Compound: O=c1cc(N2CCOCC2)cc(-c2cccc3c2Oc2ccc(NCc4ccc(OC5CCOCC5)nc4)cc2C3)[nH]1 [Example 2-2-4, 4-Morpholino-6-(7-(((6-((tetrahydro-2H-pyran-4-yl)oxy)pyridin-3-yl)methyl)amino)-9H-xanthen-4-yl)pyridin-2 (1H)-one]
- IC50: 500 to 2000 nM

Compound: Cc1ncsc1CNc1ccc2c(c1)Cc1cccc(-c3cc(N4CCOCC4)cc(=O)[nH]3)c1O2 [Example 2-13-2, 6-(7-(((4-Methylthiazol-5-yl)methyl)amino)-9H-xanthen-4-yl)-4-morpholino pyridin-2(1H)-one]
- IC50: 100 to 500 nM

Compound: O=c1cc(N2CCOCC2)cc(-c2cccc3c2Sc2ccc(NC(CO)CN4CCCCC4)cc2S3)[nH]1 (stereo not drawn) [Example 1-37-4, 6-(7-((1-Hydroxy-3-(piperidin-1-yl)propan-2-yl)amino)thianthren-1-yl)-4-morpholino pyridin-2(1H)-one]
- IC50: 100 to 500 nM

Compound: CCCCN1CCC(Nc2ccc3c(c2)Cc2cccc(-c4cc(N5CCOCC5)cc(=O)[nH]4)c2O3)CC1 [Example 2-28-33, 6-(7-((1-Butylpiperidin-4-yl)amino)-9H-xanthen-4-yl)-4-morpholino pyridin-2 (1H)-one]
- IC50: 100 to 500 nM

Compound: Cc1ccc(C(CO)Nc2ccc3c(c2)Sc2cccc(-c4cc(N5CCOCC5)cc(=O)[nH]4)c2S3)nc1 (stereo not drawn) [Example 1-12-99, 6-(7-((2-Hydroxy-1-(5-methylpyridin-2-yl)ethyl)amino)thianthren-1-yl)-4-morpholino pyridin-2(1H)-one]
- IC50: 100 to 500 nM

Compound: O=c1cc(N2CCOCC2)cc(-c2cccc3c2Sc2ccc(OCCN4CCOCC4)cc2S3)[nH]1 [Example 1-47, 4-Morpholino-6-(7-(2-morpholinoethoxy)thianthren-1-yl)pyridin-2(1H)-one]
- IC50: 100 to 500 nM

Compound: CCNc1cncc(CNc2ccc3c(c2)Cc2cccc(-c4cc(N5CCOCC5)cc(=O)[nH]4)c2O3)c1 [Example 2-6-1, 6-(7-(((5-(ethylamino)pyridin-3-yl)methyl)amino)-9H-xanthen-4-yl)-4-morpholinopyridin-2(1H)-one]
- IC50: 100 to 500 nM

Compound: CNc1ncccc1CNc1ccc2c(c1)Sc1cccc(-c3cc(N4CCOCC4)cc(=O)[nH]3)c1O2 [Example 4-8-21, 6-(8-(((2-(Methylamino)pyridin-3-yl)methyl)amino)phenoxathiin-4-yl)-4-morpholino pyridin-2(1H)-one]
- IC50: 100 to 500 nM

Compound: COc1ncccc1CNc1ccc2c(c1)Sc1cccc(-c3cc(N4CCOCC4)cc(=O)[nH]3)c1O2 [Example 4-8-9, 6-(8-(((2-Methoxypyridin-3-yl)methyl)amino)phenoxathiin-4-yl)-4-morpholino pyridin-2 (1H)-one]
- IC50: 100 to 500 nM

Compound: COc1cncc(CNc2ccc3c(c2)Cc2cccc(-c4cc(N5CCOCC5)cc(=O)[nH]4)c2S3)c1 [Example 3-8-9, 6-(7-(((5-Methoxypyridin-3-yl)methyl)amino)-9H-thioxanthen-4-yl)-4-morpholino pyridin-2 (1H)-one]
- IC50: 100 to 500 nM

Compound: Cn1cc(-c2cncc(CNc3ccc4c(c3)Sc3cccc(-c5cc(N6CCOCC6)cc(=O)[nH]5)c3S4)c2)cn1 [Example 1-12-22, 6-(7-(((5-(1-Methyl-1H-pyrazol-4-yl)pyridin-3-yl)methyl)amino)thianthren-1-yl)-4-morpholino pyridin-2 (1H)-one]
- IC50: 100 to 500 nM

Compound: COc1ccc(CNc2ccc3c(c2)Sc2cccc(-c4cc(N5CCOCC5)cc(=O)[nH]4)c2O3)cn1 [Example 4-8-11, 6-(8-(((6-Methoxypyridin-3-yl)methyl)amino)phenoxathiin-4-yl)-4-morpholino pyridin-2(1H)-one]
- IC50: 100 to 500 nM

Compound: O=c1cc(N2CCOCC2)cc(-c2cccc3c2Oc2cccc(N4CCOCC4)c2C3)[nH]1 [Example 2-60, 4-Morpholino-6-(8-morpholino-9H-xanthen-4-yl)pyridin-2(1H)-one]
- IC50: 100 to 500 nM

Compound: CC(CNC1CCCCC1)Nc1ccc2c(c1)Sc1cccc(-c3cc(N4CCOCC4)cc(=O)[nH]3)c1S2 (stereo not drawn) [Example 1-13-7, 6-(7-((1-(Cyclohexylamino)propan-2-yl)amino)thianthren-1-yl)-4-morpholino pyridin-2(1H)-one]
- IC50: 100 to 500 nM

Compound: O=c1cc(N2CCOCC2)cc(-c2cccc3c2Oc2ccc(NCC4CCN(c5ccncc5)CC4)cc2C3)[nH]1 [Example 2-21-5]
- IC50: 500 to 2000 nM

Compound: CC(CN1CCN(Cc2ccccn2)CC1)Nc1ccc2c(c1)Sc1cccc(-c3cc(N4CCOCC4)cc(=O)[nH]3)c1S2 (stereo not drawn) [Example 1-15-2, 4-Morpholino-6-(7-((1-(4-(pyridin-2-ylmethyl)piperazin-1-yl)propan-2-yl)amino)thianthren-1-yl)pyridin-2(1H)-one]
- IC50: 100 to 500 nM

Compound: Cc1cccc(C(Nc2ccc3c(c2)Sc2cccc(-c4cc(N5CCOCC5)cc(=O)[nH]4)c2S3)C2CCCNC2)n1 (stereo not drawn) [Example 1-20-13, 6-(7-(((6-Methylpyridin-2-yl)(piperidin-3-yl)methyl)amino)thianthren-1-yl)-4-morpholino pyridin-2(1H)-one]
- IC50: 500 to 2000 nM

Compound: Cc1cnc(C(CCN(C)C)Nc2ccc3c(c2)Cc2cccc(-c4cc(N5CCOCC5)cc(=O)[nH]4)c2O3)cn1 (single isomer, unassigned) [Example 12-4, 6-(7-((3-(Dimethylamino)-1-(5-methylpyrazin-2-yl)propyl)amino)-9H-xanthen-4-yl)-4-morpholinopyridin-2(1H)-one]
- IC50: < 100 nM

Compound: CN1CCOc2cc(CNc3ccc4c(c3)Cc3cccc(-c5cc(N6CCOCC6)cc(=O)[nH]5)c3O4)cnc21 [Example 2-2-5, 6-(7-(((4-Methyl-3,4-dihydro-2H-pyrido[3,2-b] [1,4]oxazin-7-yl)methyl)amino)-9H-xanthen-4-yl)-4-morpholino pyridin-2 (1H)-one]
- IC50: 100 to 500 nM

Compound: CC(CNc1ccc2c(c1)Sc1cccc(-c3cc(N4CCOCC4)cc(=O)[nH]3)c1S2)N1CCOCC1 (single isomer, unassigned) [Example 1-9-2-3, 4-morpholino-6-(7-((2-morpholinopropyl)amino)thianthren-1-yl)pyridin-2(1H)-one]
- IC50: 100 to 500 nM

Compound: CN1CCC(Nc2ccc3c(c2)Sc2cccc(-c4cc(N5CCOCC5)cc(=O)[nH]4)c2O3)CC1 [Example 4-8-2, 6-(8-((1-Methylpiperidin-4-yl)amino)phenoxathiin-4-yl)-4-morpholino pyridin-2(1H)-one]
- IC50: 100 to 500 nM
